T1: SmPabB (Stenotrophomonas maltophilia, UniProt B2FR92)
T1 sequence (B2FR92 1-454): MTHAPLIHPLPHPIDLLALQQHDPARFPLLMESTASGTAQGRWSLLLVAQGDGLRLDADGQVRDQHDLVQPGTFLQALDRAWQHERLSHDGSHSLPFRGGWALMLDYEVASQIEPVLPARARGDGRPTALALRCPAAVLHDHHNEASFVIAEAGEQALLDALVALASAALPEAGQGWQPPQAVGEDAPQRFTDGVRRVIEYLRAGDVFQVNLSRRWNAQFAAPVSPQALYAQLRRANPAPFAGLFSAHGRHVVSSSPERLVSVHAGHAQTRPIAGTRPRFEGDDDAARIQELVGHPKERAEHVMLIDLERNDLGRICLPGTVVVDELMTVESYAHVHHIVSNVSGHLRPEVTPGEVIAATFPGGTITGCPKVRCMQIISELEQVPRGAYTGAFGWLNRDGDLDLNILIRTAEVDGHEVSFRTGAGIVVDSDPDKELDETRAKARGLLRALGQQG

T2: E. coli PabB (Escherichia coli, UniProt P05041)
T2 sequence (P05041 1-453): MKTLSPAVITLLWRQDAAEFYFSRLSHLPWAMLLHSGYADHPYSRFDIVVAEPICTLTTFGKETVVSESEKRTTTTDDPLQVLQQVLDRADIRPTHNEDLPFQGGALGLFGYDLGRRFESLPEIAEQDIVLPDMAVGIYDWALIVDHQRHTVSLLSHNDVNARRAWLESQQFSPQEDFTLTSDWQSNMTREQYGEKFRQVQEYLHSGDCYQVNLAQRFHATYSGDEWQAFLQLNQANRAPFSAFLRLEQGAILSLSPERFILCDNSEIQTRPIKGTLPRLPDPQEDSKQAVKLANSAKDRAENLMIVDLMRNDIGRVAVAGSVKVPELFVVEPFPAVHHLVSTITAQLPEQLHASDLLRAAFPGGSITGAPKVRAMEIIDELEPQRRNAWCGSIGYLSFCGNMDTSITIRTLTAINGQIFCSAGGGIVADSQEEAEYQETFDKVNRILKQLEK

T3: E. coli PabB (aminodeoxychorismate synthase) (E. coli, UniProt P05041 1-453)
T3 sequence: T2 sequence (P05041 1-453)

T4: Stenotrophomonas maltophilia PabB (aminodeoxychorismate synthase) (Stenotrophomonas maltophilia, UniProt B2FR92 2-454)
T4 sequence: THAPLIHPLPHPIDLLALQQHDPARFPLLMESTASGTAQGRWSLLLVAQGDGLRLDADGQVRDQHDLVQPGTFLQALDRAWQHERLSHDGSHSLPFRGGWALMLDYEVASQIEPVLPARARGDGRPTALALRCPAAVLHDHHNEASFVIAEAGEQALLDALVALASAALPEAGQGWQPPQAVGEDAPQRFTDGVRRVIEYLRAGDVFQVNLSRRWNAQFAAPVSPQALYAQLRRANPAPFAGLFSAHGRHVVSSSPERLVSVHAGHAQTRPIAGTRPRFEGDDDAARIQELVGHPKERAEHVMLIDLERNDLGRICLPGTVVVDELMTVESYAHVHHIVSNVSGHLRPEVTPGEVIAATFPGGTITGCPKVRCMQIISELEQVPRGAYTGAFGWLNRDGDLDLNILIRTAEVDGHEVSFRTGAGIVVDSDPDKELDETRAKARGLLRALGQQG

B1: E. coli PabA (glutamine amidotransferase subunit of aminodeoxychorismate synthase) (enzyme, UniProt P00903 1-187, looked up)
chain: MILLIDNYDSFTWNLYQYFCELGADVLVKRNDALTLADIDALKPQKIVISPGPCTPDEAGISLDVIRHYAGRLPILGVCLGHQAMAQAFGGKVVRAAKVMHGKTSPITHNGEGVFRGLANPLTVTRYHSLVVEPDSLPACFDVTAWSETREIMGIRHRQWDLEGVQFHPESILSEQGHQLLANFLHR

Experiments:
[1] = target: T1, SmPabB; assay: isothermal titration calorimetry; assay type: binding
[2] = target: T2, E. coli PabB; assay: LC/MS of bound ligand released from purified protein; assay type: binding; conditions: co-purified tryptophan; vestigial regulatory site
[3] = target: T3, E. coli PabB (aminodeoxychorismate …); assay: other fluorescence titration
[4] = target: T4, Stenotrophomonas maltophilia PabB …; assay: other fluorescence titration

Molecule | Kd [1] [nM] | LC/MS of bound ligand released from purified protein [2] | Kd [3] [nM] | Kd [4] [nM]
N[C@@H](Cc1c[nH]c2ccccc12)C(=O)O [tryptophan] | ~11700 | E. coli PabB samples, as expected, contained tryptophan |  | 
B1 |  |  | 109 | 39

Reference: PMC3532939 (Biochemistry, 2012)
